Measurements as given in PMC6934700, “Structure-Guided Design of a Fluorescent Probe for the Visualization of FtsZ in Clinically Important Gram-Positive and Gram-Negative Bacterial Pathogens” (Scientific Reports, 2019).
Like-named read-outs stand apart in the source and are kept apart here.

Legend:
S. aureus (SaFtsZ) = target: T1, S. aureus (SaFtsZ) (Staphylococcus aureus, UniProt P0A031); assay: biochemical; assay type: binding
T1 construct: 6xHis (C); made in house; host or cells: E. coli BLR (DE3), pET-22b(+)
T1 sequence (P0A031 1-390): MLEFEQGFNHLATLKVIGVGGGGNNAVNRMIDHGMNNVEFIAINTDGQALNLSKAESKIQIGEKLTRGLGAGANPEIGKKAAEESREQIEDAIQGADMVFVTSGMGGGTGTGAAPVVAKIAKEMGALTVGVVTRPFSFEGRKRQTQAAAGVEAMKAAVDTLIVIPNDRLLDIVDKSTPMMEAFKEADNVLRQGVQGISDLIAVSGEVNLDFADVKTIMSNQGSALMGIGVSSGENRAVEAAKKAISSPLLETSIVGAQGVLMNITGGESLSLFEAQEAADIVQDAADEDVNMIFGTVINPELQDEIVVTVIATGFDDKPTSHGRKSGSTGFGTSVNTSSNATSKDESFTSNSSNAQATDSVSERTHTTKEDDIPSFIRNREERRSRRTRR
Procedure: (§1) Fluorescence anisotropy experiments were performed using an AVIV model ATF105 spectrofluorometer at 15, 25, or 37 °C. In these experiments, bandwidths were set to 4 nm in both the excitation and emission directions, with the excitation and emission wavelengths being set at 488 nm and 510 nm, respectively. BOFP (0.1 µM) was titrated with increasing concentrations (ranging from 0 to 12 µM) of FtsZ in 120 µL of buffer containing 50 mM Tris-HCl (pH 7.6) and 50 mM KCl. After each protein addition, the samples were equilibrated for 3 minutes, whereupon the fluorescence anisotropy was measured.
(§2) In this equation, r0 is the anisotropy of the protein-free compound, r∞ is the anisotropy of the compound in the presence of an infinite concentration of FtsZ, [C]tot is the total concentration of the compound, and [P]tot is the total concentration of protein with each addition. These analyses yielded the equilibrium dissociation constant (Kd) for each binding reaction.
(§3) The binding free energy (ΔG) at temperature T was derived from the corresponding Kd value determined at T using the following relationship:2 ΔG=−RTln(1/Kd)
(§4) The binding enthalpy (ΔH) and entropy (ΔS) were derived from linear fits of the ln(1/Kd) vs. 1/T plots shown in Figs. 3f and 5e using the following relationship:3 ln(1/Kd)=−ΔH/R(1/T)+ΔS/R
The impact of guanosine nucleotide and magnesium on the binding of BOFP to SaFtsZ was assessed at 37 °C in the same buffer described above. In these studies, the anisotropy of 0.1 µM BOFP alone or in the presence of 10 µM SaFtsZ was measured, with the latter also being measured in the presence of 0.1 mM GMPCPP (a non-hydrolyzable GTP analog), 10 mM MgCl2, or both.
In comparative control experiments, the anisotropy of 0.1 µM BODIPY FL-COOH or BOFP alone or in the presence of SaFtsZ (10 µM), SpyFtsZ (10 µM), KpFtsZ (2 µM), or PaFtsZ (2 µM) was measured at 37 °C in the same buffer described above.

S. agalactiae (SagFtsZ) = target: T2, S. agalactiae (SagFtsZ) (Streptococcus agalactiae, UniProt Q8E183); assay: Fluorescence anisotropy binding of BOFP to SagFtsZ; conditions: for Kd: 50 mM Tris-HCl (pH 7.6), 50 mM KCl, 0.1 µM BOFP
T2 sequence (Q8E183 1-426): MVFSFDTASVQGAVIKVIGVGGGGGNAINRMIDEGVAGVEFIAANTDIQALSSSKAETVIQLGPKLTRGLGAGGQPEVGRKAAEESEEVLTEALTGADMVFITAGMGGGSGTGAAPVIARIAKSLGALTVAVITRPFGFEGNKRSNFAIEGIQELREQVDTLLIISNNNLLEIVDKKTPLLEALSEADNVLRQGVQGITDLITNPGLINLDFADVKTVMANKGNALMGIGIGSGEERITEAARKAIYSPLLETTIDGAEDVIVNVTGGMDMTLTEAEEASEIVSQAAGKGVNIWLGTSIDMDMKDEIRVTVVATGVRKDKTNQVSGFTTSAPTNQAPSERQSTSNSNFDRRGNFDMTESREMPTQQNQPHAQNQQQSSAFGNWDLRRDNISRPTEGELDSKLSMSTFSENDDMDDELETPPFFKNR
Procedure: as §1, §2, §3, §4

[1] = target: T3, FtsZ in S. aureus NRS705 cells (Staphylococcus aureus, UniProt P0A031); assay type: cell-based; conditions: 1 µg/mL for 5 minutes
T3 construct: endogenous in cells; host or cells: S. aureus NRS705 (USA100 MRSA)
Procedure: All differential interference contrast (DIC) and fluorescence microscopy experiments were conducted using an Olympus BX50 microscope equipped with an X-cite Exacte 200 W mercury lamp, a 100× Olympus UPLSAPO oil immersion objective (1.40 aperture), as well as both Chroma ET-EGFP (FITC/Cy2) and ET mCherry, Texas Red filters. Images were captured using a QImaging Retiga R3 charge-coupled device (CCD) camera and the Ocular-Version 2.0 software package (QImaging).
For visualizing FtsZ in Gram-positive bacteria using BOFP, the bacterial cells were grown to log-phase in media suitable for each individual pathogen. Specifically, S. aureus NRS705 (MRSA) was grown in tryptic soy broth (TSB), E. faecalis ATCC 29212 and E. faecium ATCC 19434 were grown in lactobacilli MRS broth, S. agalactiae ATCC 12386 and S. pneumoniae ATCC 49619 were grown in TH broth, and S. pyogenes ATCC 19615 was grown in CAMH broth supplemented with 3% (v/v) LHB. For each Gram-positive bacterial strain, a total of 1 mL of cell culture was centrifuged at 15,000 × g for 1 minute and washed 2–3 times with 1 mL of PBS. After the final wash, the pelleted cells were resuspended in 500 µL of PBS containing 1 µg/mL of BOFP and incubated in the dark for 5 minutes at room temperature. The cells were then centrifuged at 15,000 × g for 1 minute, washed twice with 1 mL of PBS, and subsequently resuspended in 200 µL of PBS. […]

[2] = from linear fit of ln(1/Kd) vs. 1/T

**Q.** What does the source list for `CC1=CC(C)=[N+]2C1=Cc1ccc(CCC(=O)OCC(Oc3ccc(F)c(C(N)=O)c3F)c3nc(-c4ccc(C(F)(F)F)cc4)c(Br)o3)n1[B-]2(F)F` (centres unmarked) [BOFP]?
**A.** Effect of both GMPCPP and MgCl2 on anisotropy of SaFtsZ-bound BOFP (S. aureus (SaFtsZ); 0.1 µM BOFP, 10 µM SaFtsZ, 0.1 mM GMPCPP and 10 mM MgCl2, 37 °C): modest increase in the anisotropy; Effect of GMPCPP alone or MgCl2 alone on anisotropy of SaFtsZ-bound BOFP (S. aureus (SaFtsZ); 0.1 µM BOFP, 10 µM SaFtsZ, 0.1 mM GMPCPP or 10 mM MgCl2, 37 °C): neither GMPCPP alone (at 0.1 mM) nor MgCl2 alone (at 10 mM) has a significant effect; Kd (S. aureus (SaFtsZ); 15 °C, 50 mM Tris-HCl (pH 7.6), 50 mM KCl, 0.1 µM BOFP, read-out: Kd - 15 °C): 0.88 ± 0.08 µM; Kd (S. aureus (SaFtsZ); 25 °C, 50 mM Tris-HCl (pH 7.6), 50 mM KCl, 0.1 µM BOFP, read-out: Kd - 25 °C): 1.66 ± 0.12 µM; Kd (S. aureus (SaFtsZ); 37 °C, 50 mM Tris-HCl (pH 7.6), 50 mM KCl, 0.1 µM BOFP, read-out: Kd - 37 °C): 3.14 ± 0.13 µM; ΔG (S. aureus (SaFtsZ); calculated at T = 310 K (37 °C) from Kd): -7.8 ± 0.1 kcal/mol; ΔH (S. aureus (SaFtsZ); [2]): -10.2 ± 0.3 kcal/mol; ΔS (S. aureus (SaFtsZ); [2]): −7.8 ± 1.0 cal/mol•K; Kd (S. aureus (SaFtsZ); range over 15 to 37 °C, read-out: Kd range): 0.9 to 3.1 µM; Kd (S. agalactiae (SagFtsZ); 15 °C, read-out: Kd - 15 °C): 0.62 ± 0.05 µM; Kd (S. agalactiae (SagFtsZ); 25 °C, read-out: Kd - 25 °C): 1.02 ± 0.09 µM; Kd (S. agalactiae (SagFtsZ); 37 °C, read-out: Kd - 37 °C): 1.31 ± 0.04 µM; ΔH (S. agalactiae (SagFtsZ); [2]): -6.6 ± 0.6 kcal/mol; Fluorescence staining / FtsZ labeling in live cells [1]: bright bands of fluorescence staining are clearly visible at midcell
